Measurements taken from ChEMBL document CHEMBL1201862, “PubChem BioAssay data set” (2004).
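Cells were grown in 96-well plates and exposed to each compound for 48 hours at five concentrations; endpoints were interpolated linearly between bracketing concentrations, or set to the highest concentration if not reached. GI50 = concentration required for 50% inhibition of growth.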 Calls of active or inactive are those of the source. Rule as the data show it: active = GI50 up to about 1.1 µM and inactive = higher.

Legend:
Assay in all cases: NCI tumour cell line growth inhibition, 48 h
[1] = tested on: HOP-18
[2] = tested on: DMS-273
[3] = tested on: M19-MEL
[4] = tested on: XF498
[5] = tested on: DMS-114
[6] = tested on: RXF 631
[7] = tested on: DLD-1
[8] = tested on: KM-20L2
[9] = tested on: T47D

SMILES | GI50 [1] | GI50 [2] | GI50 [3] | GI50 [4] | GI50 [5] | GI50 [6] | GI50 [7] | GI50 [8] | GI50 [9]
O=C(Nc1ccc(Cl)cc1)C1C(=O)C(=O)N(c2ccc(Cl)cc2)C1=O (centres undefined) | > 100 µM (inactive) | > 100 µM (inactive) | > 100 µM (inactive) | > 100 µM (inactive) | > 100 µM (inactive) | > 100 µM (inactive) | 68.9 µM (inactive) | 45.8 µM (inactive) | 
NN/C(Cc1ccccc1)=N/NC(N)=S | 24 µM (inactive) | > 100 µM (inactive) | > 100 µM (inactive) | > 100 µM (inactive) | 41.3 µM (inactive) | > 100 µM (inactive) | > 100 µM (inactive) | > 100 µM (inactive) | 
O=C1CCC2(c3ccc(F)cc3)Nc3ccccc3N12 (centres undefined) |  |  | > 100 µM (inactive) | > 100 µM (inactive) | > 100 µM (inactive) | > 100 µM (inactive) | > 100 µM (inactive) | > 100 µM (inactive) | 
COc1ccc(CNc2cc(OC)c(OC)c(OC)c2)cc1 | > 21.7 µM (inactive) | 2.09 µM (inactive) | 4.57 µM (inactive) | 21.3 µM (inactive) | 3.01 µM (inactive) | 3.47 µM (inactive) | 5.66 µM (inactive) | 2.8 µM (inactive) | 
COc1ccc(NC(=O)C2=CC(=O)c3ccc(O)cc3C2=O)c(OC)c1 | > 100 µM (inactive) |  | > 100 µM (inactive) | > 100 µM (inactive) | > 100 µM (inactive) | > 100 µM (inactive) | > 100 µM (inactive) | > 100 µM (inactive) | 
O=c1ccn(/C=C/C(O)C(O)CO)c(=O)[nH]1 (centres undefined) | > 100 µM (inactive) | > 100 µM (inactive) | > 100 µM (inactive) | > 100 µM (inactive) | > 100 µM (inactive) | > 100 µM (inactive) | > 100 µM (inactive) | > 100 µM (inactive) | 
O=C(N/C(=C\c1ccc([N+](=O)[O-])cc1)c1nc2ccccc2s1)c1ccccc1 | 18.5 µM (inactive) | 35.7 µM (inactive) | 22.9 µM (inactive) | 44.8 µM (inactive) | 23.3 µM (inactive) |  | 19.9 µM (inactive) | 40.7 µM (inactive) | 
CCOc1ccc(NCC2CC/C(=C\c3ccc(Cl)cc3)C2=O)cc1 (centres undefined) | 22.1 µM (inactive) | > 39.8 µM (inactive) | > 42.4 µM (inactive) | 19.3 µM (inactive) | 26.4 µM (inactive) |  | 10 µM (inactive) | > 38.3 µM (inactive) | 
COc1cc(CC2c3cc(OC)c(OC)cc3CCN2C)c(C(=O)O)cc1OC (centres undefined) | > 100 µM (inactive) | > 100 µM (inactive) | > 100 µM (inactive) | > 100 µM (inactive) | > 100 µM (inactive) |  | > 100 µM (inactive) | > 100 µM (inactive) | 
Cc1cc(=O)oc2cc3c(cc12)Oc1ccccc1O3 | > 100 µM (inactive) | > 100 µM (inactive) | > 100 µM (inactive) | > 10 µM (inactive) | > 100 µM (inactive) | > 100 µM (inactive) | > 100 µM (inactive) | > 100 µM (inactive) | 
Cc1cc2c(C)n(Cc3ccc(Cl)cc3Cl)nc2c(C(=O)O)c1C | > 100 µM (inactive) | > 100 µM (inactive) | > 100 µM (inactive) | > 100 µM (inactive) |  | > 100 µM (inactive) | > 100 µM (inactive) | > 100 µM (inactive) | 
CCOC(=O)/C(O)=C(/C(=O)OC)c1ccc(Cl)cc1 |  | > 100 µM (inactive) | > 100 µM (inactive) | > 100 µM (inactive) | > 100 µM (inactive) | > 100 µM (inactive) | > 100 µM (inactive) | > 100 µM (inactive) | 
O=C(CC1C(=O)c2ccccc2C1=C1C(=O)c2ccccc2C1=O)c1ccccc1 (centres undefined) | > 100 µM (inactive) | > 100 µM (inactive) | 78.9 µM (inactive) | > 100 µM (inactive) | > 100 µM (inactive) |  | > 100 µM (inactive) | > 100 µM (inactive) | 
Nc1ccc(CCN2CCN(c3cccc(C(F)(F)F)c3)CC2)cc1 | > 100 µM (inactive) |  | > 100 µM (inactive) | > 100 µM (inactive) | 26.4 µM (inactive) | 56.5 µM (inactive) | 97.1 µM (inactive) | > 100 µM (inactive) | 
COc1ccc2c(c1)[n+]([O-])c(C(=O)C/C(=N/OCCCc1ccccc1)C(=O)NC13CC4CC(CC(C4)C1)C3)c(C)[n+]2[O-] | > 100 µM (inactive) | > 100 µM (inactive) | > 100 µM (inactive) | > 100 µM (inactive) | > 100 µM (inactive) | > 100 µM (inactive) | > 100 µM (inactive) | > 100 µM (inactive) | 
C1=CC2SSSC2C1 (centres undefined) | > 100 µM (inactive) | > 100 µM (inactive) | > 100 µM (inactive) | > 100 µM (inactive) | > 100 µM (inactive) |  | > 100 µM (inactive) | > 100 µM (inactive) | 
CCCCC(C(=O)C(=O)Nc1ccc(C)cc1C)C(=O)C(C)C (centres undefined) | > 100 µM (inactive) | > 100 µM (inactive) | > 100 µM (inactive) | > 100 µM (inactive) | > 100 µM (inactive) | > 100 µM (inactive) | > 100 µM (inactive) | > 100 µM (inactive) | 
O=C(O)C1CC2CC(=O)C1C2 (centres undefined) | > 100 µM (inactive) | > 100 µM (inactive) | > 100 µM (inactive) | > 100 µM (inactive) |  | > 100 µM (inactive) | > 100 µM (inactive) | > 100 µM (inactive) | 
SC1=NC2(CCCCCC2)NN1c1ccccc1 | > 100 µM (inactive) | 0.166 µM (active) |  |  | 0.273 µM (active) | 2.81 µM (inactive) | 0.34 µM (active) |  | 0.597 µM (active)
Nc1ccc2c(SCC(=O)Nc3ccccc3-c3ccccc3NC(=O)CSc3c4ccccc4nc4cc(N)ccc34)c3ccccc3nc2c1 | 26 µM (inactive) | 33 µM (inactive) | 20.2 µM (inactive) | 19.9 µM (inactive) | 18.9 µM (inactive) | 27.9 µM (inactive) | 12.9 µM (inactive) | 33.1 µM (inactive) | 3.05 µM (inactive)
N#C/C(=C\c1ccc[nH]1)C(=O)c1ccccc1 | 70.3 µM (inactive) | > 100 µM (inactive) | > 100 µM (inactive) |  | > 100 µM (inactive) | > 100 µM (inactive) | > 100 µM (inactive) | > 100 µM (inactive) | 
